Assay results: patent US20020128269A1, “Substituted heterocyclic compounds for treating multidrug resistance” (priority 2000, published 2002)

Tested on: NIH-MDR1-G185 cells
Experiment: Fluorescent Substrate Accumulation Assay (BODIPY-FL Taxol accumulation)
Type: cell-based
Settings: fluorescence in NIH-MDR1-G185 cells in presence / absence of modulator; BODIPY-FL Taxol 500 nM, 40 min at 37° C; modulator final concentration of 10 microliters (so in the source)
Description: NIH-MDR1-G185 cells (obtained from M. Gottesman, NIH) were harvested and resuspended in RPMI-1640 containing L-glutamine, 10% Cosmic Calf Serum and penicillin-streptomycin. Cell suspension aliquots of 175 microliters (1×10^5 cells) were added to individual wells of a 96 well microtiter plate and preincubated for 15 min at 37° C with 20 microliters MDR modulator diluted in cell culture media to give a final concentration of 10 microliters. Control wells received no modulating agent. BODIPY-FL Taxol (Molecular Probes, Eugene, Oreg.) was added to each well in 10 microliter aliquots to give a final concentration of 500 nM and cells were incubated for 40 min at 37° C. Cells were centrifuged at 100× g for 5 min at 4° C. and the cell pellet washed with 200 microliters cold PBS to remove fluorescent medium from wells. Cells were centrifuged once more, media removed, and cells resuspended in 200 microliters cold PBS. Fluorescence accumulation was measured in a fluorescence plate reader fitted with an excitation filter of 485 nm and an emission filter of 538 nm. BODIPY-FL taxol accumulation in the cells was calculated as follows:
Accumulation Index=(fluorescence in NIH-MDR1-G185 cells in the presence of modulator )/(fluorescence in NIH-MDR1-G185 cells in absence of modulator)
Accumulation Index of various compounds prepared above was tested according to the method in Reference Example 3.

O=C(NC(CCCc1ccccc1)CCCc1ccccc1)C1CN(C[C@@H](O)COc2cccc3ncccc23)CCN1C(=O)COCc1ccccc1 (stereo partly drawn) [Compound 38, 1-(Benzyloxyacetyl)-4-{1-[2-(R)-hydroxy-3-(quinolin-5-yloxy)-propyl]}-piperazine-2-carboxylic Acid [4-phenyl-1-(3-phenyl-propyl)-butyl]-amide]
Accumulation Index: 5
